From patent US20230417751A1, “ANALYSIS OF PROTEIN KINASES IN LIVE CELLS” (Texas Tech University System, priority 2021, published 2023)

Legend:
[1] = target: AKT1 mutant with enlarged ATP binding pocket (Homo sapiens, UniProt P31749, M227G); settings: cited from earlier work
[2] = target: T1, wild type AKT1 (Homo sapiens, UniProt P31749); settings: in vitro; cited from earlier work
Target sequence in this assay (P31749 whole entry, species assumed): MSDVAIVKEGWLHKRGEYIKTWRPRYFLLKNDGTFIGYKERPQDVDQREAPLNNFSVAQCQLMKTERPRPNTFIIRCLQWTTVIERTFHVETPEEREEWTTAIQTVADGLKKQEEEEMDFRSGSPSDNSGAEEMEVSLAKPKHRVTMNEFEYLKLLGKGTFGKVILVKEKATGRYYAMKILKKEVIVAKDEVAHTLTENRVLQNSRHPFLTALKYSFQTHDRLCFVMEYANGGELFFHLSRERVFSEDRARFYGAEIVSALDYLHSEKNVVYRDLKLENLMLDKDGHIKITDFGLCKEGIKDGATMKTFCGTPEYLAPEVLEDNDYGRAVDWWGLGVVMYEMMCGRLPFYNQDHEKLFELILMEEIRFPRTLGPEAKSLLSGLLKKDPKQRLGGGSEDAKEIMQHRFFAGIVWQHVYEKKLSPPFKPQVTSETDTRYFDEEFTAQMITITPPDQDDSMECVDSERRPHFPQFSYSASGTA

[3] = target: T1, wild type AKT1; assay: Intracellular A*TPγS delivery and thio-phosphorylation assay, cells transfected with wild type AKT1; type: cell-based; set-up: host or cells: HCT116
Description: (§1) Plasmid constructs. Wild type AKT1 plasmid was purchased from Addgene (Addgene plasmid pcDNA3-myr-HA-AKT1 1036). Point mutation as in references (37) of the ATP-binding pocket gatekeeper amino acid (M227G) were introduced by GENEWIZ (New Jersey, USA), with a modified Strategene QuikChange® site-directed mutagenesis method.
(§2) Expression plasmid transfection. The HCT116 cells were plated into […] dishes and transfected at approximately 90% confluence with the specified plasmid (wild type pcDNA3-myr-HA-AKT1 plasmid or the mutant pcDNA3-myr-HA-AKT1 plasmid) using BP-Fectin mammalian cell transfection reagent (BioPioneer, USA) in accordance with the manufacturer's instructions. One untransfected dish was used as a negative control. After 72 hours, cells were washed twice with cold PBS. Transfection efficacy was confirmed by western-blot measurement of the expression of the HA-tagged fusion proteins with the HA tag monoclonal antibody (Thermo Fisher Scientific, USA).
Intracellular A*TPγS delivery and thio-phosphorylation assays. […] Then, the PNBM treated cell lysates were analyzed with a western blot assay to measure protein thio-phosphorylation with the anti-thiophosphate ester rabbit monoclonal antibodies (Abcam, USA). […]
(§3) Western blotting assay. First, total protein concentrations of the cell lysates were determined by a BCA protein assay kit (Thermo, USA). […]
Target sequence in this assay (P31749 whole entry): as the sequence (P31749 whole entry, species assumed) above

[4] = target: T2, AKT2^M-G (Homo sapiens, UniProt P31751, M229G); assay: Live cell AKT substrate tagging, cells transfected with AKT2^M-G; type: cell-based; settings: HCT116 cells, AKT^M-G expression vector (AKT1 and AKT2 stated together), A*TPγS delivery
T2 construct: expressed in transfected cells; host or cells: HCT116
Description: (§4) Intracellular A*TPγS delivery and thio-phosphorylation assays. Control and transfected HCT116 cells were incubated with A*TPγS-loaded LCP nanoparticles for 4 hours. The cells were washed by cold PBS twice and then lysed with RIPA buffer (which contains protease and phosphatase inhibitors) for 30 minutes at 4° C. The cell lysates were treated with 2.5 mM PNBM at room temperature for 1 hour. Then, the PNBM treated cell lysates were analyzed with a western blot assay to measure protein thio-phosphorylation with the anti-thiophosphate ester rabbit monoclonal antibodies (Abcam, USA).
(§5) Immunoprecipitation assays. The PNBM-treated cell lysates were pre-cleaned by an off-target antibody. Then the cleaned cell lysates were incubated with 10 μL anti-thiophosphate ester rabbit monoclonal antibody (Abcam, USA) at 4° C. for 12 hours. 100 μL protein G beads (Thermo Fisher Scientific, USA) were mixed under rotary agitation at 4° C. for 4 hours, washed twice by wash buffer, and the beads were collected. Then, proteins were captured in the beads and released by elution buffer. The elution buffer was collected and stored at −80° C.
(§6) Western blotting assay. First, total protein concentrations of the cell lysates were determined by a BCA protein assay kit (Thermo, USA). Protein extracts were separated by SDS-PAGE, then transferred onto a nitrocellulose membrane (NC membrane). […]

[5] = target: T3, mutant AKT1 (M227G) (Homo sapiens, UniProt P31749, M227G); assay: Intracellular A*TPγS delivery and thio-phosphorylation assay, cells transfected with mutant AKT1; type: cell-based
T3 construct: mutagenesis by GENEWIZ pcDNA3-myr-HA-AKT1 1036; host or cells: HCT116
Description: as §1, §2, §4
as §5, with “Then, proteins were captured in the beads and released by elution buffer. The elution buffer was collected and stored at −80° C.” left out
as §3

[6] = target: T4, AKT2 (Homo sapiens, UniProt P31751); assay: Live cell AKT substrate tagging, cells transfected with WT AKT2; type: cell-based; settings: HCT116 cells, WT-AKT expression vector (AKT1 and AKT2 stated together), A*TPγS delivery
T4 construct: expressed in transfected cells; host or cells: HCT116
Description: as §4, §5, §6

[7] = target: T5, Akt1M-G (Homo sapiens, UniProt P31749, M227G); assay: Preliminary fluorogenic experiment with nanoparticle loaded with TNP-A*TP and alexa-fluo-647-ATP; type: cell-based; settings: nanoparticle with TNP-A*TP and alexa-fluo-647-ATP 10:1
T5 construct: expressed in transfected cells
Description: The cells transfected with Akt1M-G or WT Akt1 expression vectors were treated with the nanoparticle. Alexa-fluo-647-ATP signal monitored nanoparticle delivery in all cells (FIG. 10A-D).

T3 sequence (P31749 whole entry M227G): as the sequence (P31749 whole entry, species assumed) above, with M227G counted along it
T5 sequence (P31749 whole entry M227G): as the sequence (P31749 whole entry, species assumed) above, with M227G counted along it
T4 sequence (P31751 whole entry): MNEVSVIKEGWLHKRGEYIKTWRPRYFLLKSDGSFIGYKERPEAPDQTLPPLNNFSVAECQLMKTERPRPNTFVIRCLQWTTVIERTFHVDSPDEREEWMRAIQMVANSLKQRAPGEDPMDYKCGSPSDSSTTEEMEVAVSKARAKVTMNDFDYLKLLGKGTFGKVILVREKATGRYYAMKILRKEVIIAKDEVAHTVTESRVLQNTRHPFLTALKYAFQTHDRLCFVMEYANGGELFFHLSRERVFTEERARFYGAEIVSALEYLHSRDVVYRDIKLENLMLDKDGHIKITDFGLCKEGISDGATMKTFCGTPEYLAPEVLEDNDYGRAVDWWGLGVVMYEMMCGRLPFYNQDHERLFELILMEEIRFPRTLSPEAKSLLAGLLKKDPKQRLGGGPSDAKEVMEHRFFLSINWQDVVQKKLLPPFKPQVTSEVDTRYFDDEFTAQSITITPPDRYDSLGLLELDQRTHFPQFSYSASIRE
T2 sequence (P31751 whole entry M229G): as the sequence (P31751 whole entry) above, with M229G counted along it
Sequence of AKT1 mutant with enlarged ATP binding pocket (P31749 whole entry M227G): as the sequence (P31749 whole entry, species assumed) above, with M227G counted along it

## O=P(O)(O)OP(=O)(O)OP(=O)(O)OC[C@H]1O[C@@H](n2cnc3c(NCc4ccccc4)ncnc32)[C@H](O)[C@@H]1O [A*TP, N^6-Benzyl-ATP]
[1]
  binding to AKT1 mutant with enlarged ATP binding pocket: has been shown to bind

## Nc1ncnc2c1ncn2[C@@H]1O[C@H](COP(=O)(O)OP(=O)(O)OP(O)(O)=S)[C@@H](O)[C@H]1O [ATPγS]
[2]
  utilization by wild type AKT1 to tag substrate GSK3β: can be utilized by wild type AKT1 to tag its substrate GSK3β in vitro

## N^6-Benzyladenosine-5′-(3-thiotriphosphate) [A*TPγS]
[3]; HCT116 cells, wild type AKT1 vector, A*TPγS-loaded LCP nanoparticle 4 hours, PNBM alkylation
  AKT1 auto-thiophosphorylation: HA-tag Western blot of anti-thiophosphate-ester immunoprecipitant: not detected
[3]; lysate of wild-type-AKT1-expressing HCT116 cells treated with the nanoparticle
  proteins immunoprecipitated by thiophosphate ester antibody (SDS-PAGE, silver blue coomassie stain): not from that of wild-type-AKT1-expressing cells
[4]
  thio-phosphorylation by Western blot with alkylated thiophosphate-tag antibody: detected thio-phosphorylation
[5]; HCT116 cells, mutant AKT1 vector, A*TPγS-loaded LCP nanoparticle 4 hours, PNBM alkylation
  AKT1 auto-thiophosphorylation: HA-tag Western blot of anti-thiophosphate-ester immunoprecipitant: detected
[5]; HCT116 cells, mutant AKT1 vector, A*TPγS-loaded LCP nanoparticle, PNBM alkylation
  thiophosphorylation of AKT1 substrate IKKalpha: IKKalpha Western blot of anti-thiophosphate-ester immunoprecipitant: detected
[5]; lysate of mutant-AKT1-expressing HCT116 cells treated with the nanoparticle
  proteins immunoprecipitated by thiophosphate ester antibody (SDS-PAGE, silver blue coomassie stain): immunoprecipitate at high quantities a large number of proteins
[6]
  thio-phosphorylation by Western blot with alkylated thiophosphate-tag antibody: not those of WT-AKT transfected cells

## TNP-N^6-Benzyl-ATP [TNP-A*TP]
[7]; Akt1M-G-expressing cells
  TNP-A*TP fluorescence signal, subcellular localization: localized mainly to cell membrane
[7]; cells transfected with Akt1M-G or WT Akt1 vectors
  TNP-A*TP fluorescence signal, specificity: specific to Akt1M-G-expressing cells
